Here are results for 1 molecule from patent US20150320770A1, “NOVEL COMPOSITIONS AND METHODS FOR TREATING PROSTATE CANCER” (Tokai Pharmaceuticals, Inc., priority 2011, published 2015).

This data set can be described thus: API solubility assessment in common solvents. It is filed as physicochemical. The protocol: The solubility of the API was assessed in several common solvents systems to ensure obtaining the maximum API concentration for the spray drying process. […] Subsequently this binary solvent mixture was changed to the 2:1, methanol:acetone mixture due to long secondary drying times observed with the 2:1, methanol:THF system.

In the case of `C[C@]12CC[C@H](O)CC1=CCC1C2CC[C@]2(C)C(n3cnc4ccccc43)=CCC12` (stereo partly drawn) [Compound (1), 3-β-Hydroxy17-(1H-benzimidazol-1-yl)androsta-5,16-diene], the “API Solubility (%)” value is, setting by setting: (2:1 Acetone:Methanol) 4.16%; (2:1 Methanol:Acetone) 7.28%; (2:1 Methanol:Tetrahydrofuran) 16.64%; (Acetone) 1.04%; (Ethanol) 4.68%; (Ethyl Acetate) 0%. Moreover, the “API Solubility (%)” value is, setting by setting: (Methanol) 4.16%; (Tetrahydrofuran) 7.28%.
